Source: ChEMBL document CHEMBL3774317, “Design and synthesis of novel tamoxifen analogues that avoid CYP2D6 metabolism” (Eur J Med Chem, 2016)

What was measured:
[1] = Cytotoxicity against human SKOV3 cells assessed as cell growth at 10^-6 M after 48 hrs by SRB assay; type: functional; conditions: SK-OV-3, 48 h, read-out: Activity
[2] = Cytotoxicity against human HOP62 cells assessed as cell growth at 10^-6 M after 48 hrs by SRB assay; type: functional; conditions: HOP-62, 48 h, read-out: Activity
[3] = tested on: 786-0; test: Cytotoxicity against human 786-0 cells assessed as cell growth at 10^-5 M after 48 hrs by SRB assay; type: functional; conditions: 786-0, 48 h, read-out: Activity
[4] = tested on: ACHN; test: Cytotoxicity against human ACHN cells assessed as cell growth at 10^-5 M after 48 hrs by SRB assay; type: functional; conditions: read-out: Activity
[5] = Cytotoxicity against human OVCAR8 cells assessed as cell growth at 10^-4 M after 48 hrs by SRB assay; type: functional; conditions: OVCAR-8, 48 h, read-out: Activity
[6] = Cytotoxicity against human SNB75 cells assessed as cell growth at 10^-8 M after 48 hrs by SRB assay; type: functional; conditions: SNB-75, 48 h, read-out: Activity
[7] = Cytotoxicity against human SF295 cells assessed as cell growth at 10^-8 M after 48 hrs by SRB assay; type: functional; conditions: SF-295, 48 h, read-out: Activity
[8] = tested on: ACHN; test: Cytotoxicity against human ACHN cells assessed as cell growth at 10^-6 M after 48 hrs by SRB assay; type: functional; conditions: read-out: Activity
[9] = tested on: NCI-H322M; test: Cytotoxicity against human NCI-H322M cells assessed as cell growth at 10^-5 M after 48 hrs by SRB assay; type: functional; conditions: read-out: Activity
[10] = tested on: 786-0; test: Cytotoxicity against human 786-0 cells assessed as cell growth at 10^-8 M after 48 hrs by SRB assay; type: functional; conditions: 786-0, 48 h, read-out: Activity
[11] = tested on: HT-29; test: Cytotoxicity against human HT-29 cells assessed as cell growth at 10^-7 M after 48 hrs by SRB assay; type: functional; conditions: HT-29, 48 h, read-out: Activity
[12] = Cytotoxicity against human TK10 cells assessed as cell growth at 10^-5 M after 48 hrs by SRB assay; type: functional; conditions: TK-10, 48 h, read-out: Activity
[13] = Cytotoxicity against human SF295 cells assessed as cell growth at 10^-6 M after 48 hrs by SRB assay; type: functional; conditions: SF-295, 48 h, read-out: Activity
[14] = tested on: M14; test: Cytotoxicity against human M14 cells assessed as cell growth at 10^-7 M after 48 hrs by SRB assay; type: functional; conditions: M14, 48 h, read-out: Activity
[15] = Cytotoxicity against human OVCAR5 cells assessed as cell growth at 10^-4 M after 48 hrs by SRB assay; type: functional; conditions: OVCAR-5, 48 h, read-out: Activity
[16] = Cytotoxicity against human RXF393 cells assessed as cell growth at 10^-6 M after 48 hrs by SRB assay; type: functional; conditions: RXF 393, 48 h, read-out: Activity
[17] = tested on: T47D; test: Cytotoxicity against human T47D cells assessed as cell growth at 10^-8 M after 48 hrs by SRB assay; type: functional; conditions: read-out: Activity
[18] = Cytotoxicity against human HCT15 cells assessed as cell growth at 10^-6 M after 48 hrs by SRB assay; type: functional; conditions: HCT-15, 48 h, read-out: Activity
[19] = Cytotoxicity against human OVCAR3 cells assessed as cell growth at 10^-8 M after 48 hrs by SRB assay; type: functional; conditions: OVCAR-3, 48 h, read-out: Activity
[20] = tested on: T47D; test: Cytotoxicity against human T47D cells assessed as cell growth at 10^-5 M after 48 hrs by SRB assay; type: functional; conditions: read-out: Activity
[21] = Cytotoxicity against human RXF393 cells assessed as cell growth at 10^-4 M after 48 hrs by SRB assay; type: functional; conditions: RXF 393, 48 h, read-out: Activity
[22] = tested on: SK-MEL-5; test: Cytotoxicity against human SK-MEL-5 cells assessed as cell growth at 10^-5 M after 48 hrs by SRB assay; type: functional; conditions: SK-MEL-5, 48 h, read-out: Activity
[23] = tested on: SK-MEL-2; test: Cytotoxicity against human SK-MEL-2 cells assessed as cell growth at 10^-7 M after 48 hrs by SRB assay; type: functional; conditions: SK-MEL-2, 48 h, read-out: Activity
[24] = Cytotoxicity against human TK10 cells assessed as cell growth at 10^-7 M after 48 hrs by SRB assay; type: functional; conditions: TK-10, 48 h, read-out: Activity
[25] = tested on: NCI-H23; test: Cytotoxicity against human NCI-H23 cells assessed as cell growth at 50 nM after 48 hrs by SRB assay; type: functional; conditions: NCI-H23, 48 h, read-out: Activity
[26] = Cytotoxicity against human SF268 cells assessed as cell growth at 5 nM after 48 hrs by SRB assay; type: functional; conditions: SF-268, 48 h, read-out: Activity
[27] = Cytotoxicity against human SNB75 cells assessed as cell growth at 50 uM after 48 hrs by SRB assay; type: functional; conditions: SNB-75, 48 h, read-out: Activity
[28] = tested on: SN12C; test: Cytotoxicity against human SN12C cells assessed as cell growth at 5 nM after 48 hrs by SRB assay; type: functional; conditions: read-out: Activity
[29] = Cytotoxicity against human OVCAR5 cells assessed as cell growth at 5 nM after 48 hrs by SRB assay; type: functional; conditions: OVCAR-5, 48 h, read-out: Activity
[30] = Cytotoxicity against human HL-60(TB) cells assessed as cell growth at 50 nM after 48 hrs by SRB assay; type: functional; conditions: HL-60, 48 h, read-out: Activity
[31] = tested on: MDA-MB-435; test: Cytotoxicity against human MDA-MB-435 cells assessed as cell growth at 50 nM after 48 hrs by SRB assay; type: functional; conditions: MDA-MB-435, 48 h, read-out: Activity
[32] = Cytotoxicity against human Caki1 cells assessed as cell growth at 5 nM after 48 hrs by SRB assay; type: functional; conditions: CAKI-1, 48 h, read-out: Activity
[33] = Cytotoxicity against human SNB75 cells assessed as cell growth at 50 nM after 48 hrs by SRB assay; type: functional; conditions: SNB-75, 48 h, read-out: Activity
[34] = tested on: Malme-3M; test: Cytotoxicity against human MALME-3M cells assessed as cell growth at 50 nM after 48 hrs by SRB assay; type: functional; conditions: read-out: Activity
[35] = tested on: ACHN; test: Cytotoxicity against human ACHN cells assessed as cell growth at 50 uM after 48 hrs by SRB assay; type: functional; conditions: read-out: Activity
[36] = tested on: U-251; test: Cytotoxicity against human U251 cells assessed as cell growth at 5 nM after 48 hrs by SRB assay; type: functional; conditions: U-251, 48 h, read-out: Activity
[37] = Cytotoxicity against human UO31 cells assessed as cell growth at 5 uM after 48 hrs by SRB assay; type: functional; conditions: UO-31, 48 h, read-out: Activity
[38] = Cytotoxicity against human RXF393 cells assessed as cell growth at 50 uM after 48 hrs by SRB assay; type: functional; conditions: RXF 393, 48 h, read-out: Activity
[39] = tested on: NCI-H322M; test: Cytotoxicity against human NCI-H322M cells assessed as cell growth at 5 uM after 48 hrs by SRB assay; type: functional; conditions: read-out: Activity
[40] = tested on: A498; test: Cytotoxicity against human A498 cells assessed as cell growth at 50 uM after 48 hrs by SRB assay; type: functional; conditions: A498, 48 h, read-out: Activity
[41] = Cytotoxicity against human OVCAR4 cells assessed as cell growth at 50 nM after 48 hrs by SRB assay; type: functional; conditions: OVCAR-4, 48 h, read-out: Activity
[42] = Metabolic stability in human liver microsomes assessed as remaining parent compound level at 10 uM after 3 hrs in presence of NAPDH by LC/MS analysis; type: ADME; conditions: read-out: Drug metabolism

## C/C(=C(/c1ccc(O)cc1)c1ccc(OCCN2CCCC2)cc1)c1ccccc1
[1]
  growth at 1 µM: 89%
[2]
  growth at 1 µM: 98%
[3]
  growth at 10 µM: -57%
[4]
  growth at 10 µM: 25%
[5]
  growth at 100 µM: -61%
[6]
  growth at 0.01 µM: 72%
[7]
  growth at 0.01 µM: 87%
[8]
  growth at 1 µM: 93%
[9]
  growth at 10 µM: 34%
[10]
  growth at 0.01 µM: 97%
[11]
  growth at 0.1 µM: 97%
[12]
  growth at 10 µM: 27%
[13]
  growth at 1 µM: 94%
[14]
  growth at 0.1 µM: 93%
[15]
  growth at 100 µM: -85%
[16]
  growth at 1 µM: 87%
[17]
  growth at 0.01 µM: 62%
[18]
  growth at 1 µM: 81%
[19]
  growth at 0.01 µM: 106%
[20]
  growth at 10 µM: -5%
[21]
  growth at 100 µM: -81%
[22]
  growth at 10 µM: -99%
[23]
  growth at 0.1 µM: 103%
[24]
  growth at 0.1 µM: 94%

## CCCCCCCCCC(=O)Oc1ccc(/C(=C(/C)c2ccccc2)c2ccc(OCCN3CCCC3)cc2)cc1
[25]
  growth at 0.05 µM: 96%
[26]
  growth at 0.005 µM: 100%
[27]
  growth at 50 µM: -90%
[28]
  growth at 0.005 µM: 102%
[29]
  growth at 0.005 µM: 99%
[30]
  growth at 0.05 µM: 98%
[31]
  growth at 0.05 µM: 92%
[32]
  growth at 0.005 µM: 88%
[33]
  growth at 0.05 µM: 83%
[34]
  growth at 0.05 µM: 98%
[35]
  growth at 50 µM: -92%
[36]
  growth at 0.005 µM: 98%
[37]
  growth at 5 µM: 70%
[38]
  growth at 50 µM: -89%
[39]
  growth at 5 µM: 85%
[40]
  growth at 50 µM: -84%
[41]
  growth at 0.05 µM: 92%
[42]
  remaining at 3 h, 10 µM: 63%
